Results as given in US11214594B2, “Antimicrobial peptide having synergistic antibacterial effect with antibiotics on multidrug resistant bacteria, and use thereof” (priority 2016, dated 2022).
≈ marks a conversion by molar mass, not a printed value. Like-named read-outs stand apart in the source and are kept apart here. Where a SMILES comes first, the peptide text is derived from it.

How the values were obtained:
[1] = tested on: S. typhimurium; assay: microbe, parasite or virus in culture; type: cell-based, Salmonella typhimurium
Method in brief: (§1)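 MIC read-out = lowest peptide level with no bacterial proliferation. Strains diluted in MH medium to 2×10^6 CFU; peptide twofold serial dilutions in MH added 1:1 in microtiter wells.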

[2] = tested on: MRSA 3114; type: cell-based, Staphylococcus aureus; details: 3114
Method in brief: as §1

[3] = tested on: MRSA 3126; type: cell-based, Staphylococcus aureus; details: 3126
Method in brief: as §1

[4] = tested on: P. aeruginosa; assay: microbe, parasite or virus in culture; type: cell-based, Pseudomonas aeruginosa
Method in brief: as §1

[5] = tested on: MDRAB 12035; assay: microbe, parasite or virus in culture; type: cell-based, Acinetobacter baumannii
Method in brief: as §1

[6] = tested on: A. baumannii; assay: microbe, parasite or virus in culture; type: cell-based, Acinetobacter baumannii
Method in brief: as §1

[7] = tested on: MDREC 1229; assay: MIC of antibiotic during combined treatment with antimicrobial peptide; type: cell-based, Escherichia coli
Method in brief: (§2)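 Antibiotic MIC came from antibiotic dilutions added to bacteria (2×10^6 CFU/ml, MH medium) already combined with peptide serially diluted 2:1 from its own MIC. Swapping the roles of the two agents gave the peptide MIC.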

[8] = tested on: S. aureus; assay: microbe, parasite or virus in culture; type: cell-based, Staphylococcus aureus
Method in brief: as §1

[9] = tested on: B. subtilis; assay: microbe, parasite or virus in culture; type: cell-based, Bacillus subtilis
Method in brief: as §1

[10] = tested on: MDRPA 2003; type: cell-based, Pseudomonas aeruginosa
Method in brief: as §1

[11] = tested on: MDRPA 2002; type: cell-based, Pseudomonas aeruginosa
Method in brief: as §1

[12] = tested on: MDRAB 12036; type: cell-based, Acinetobacter baumannii
Method in brief: as §1

[13] = tested on: MDREC 1238; type: cell-based, Escherichia coli
Method in brief: as §1

[14] = tested on: S. epidermidis; assay: microbe, parasite or virus in culture; type: cell-based, Staphylococcus epidermidis
Method in brief: as §1

[15] = tested on: MDRST 8007; assay: Minimal inhibitory concentration (MIC), single agent; type: cell-based, Salmonella typhimurium; details: agent alone
Method in brief: as §1

[16] = tested on: MDREC 1229; type: cell-based, Escherichia coli
Method in brief: as §2

[17] = tested on: E. coli; type: cell-based, Escherichia coli; details: E. coli
Method in brief: as §2

[18] = tested on: MDRAB 12035; assay: MIC of antimicrobial peptide during combined treatment with antibiotic; type: cell-based, Acinetobacter baumannii
Method in brief: as §2

[19] = tested on: A. baumannii; assay: as above; type: cell-based, Acinetobacter baumannii
Method in brief: as §2

[20] = tested on: MDRAB 12035; assay: MIC of antibiotic during combined treatment with antimicrobial peptide; type: cell-based, Acinetobacter baumannii
Method in brief: as §2

[21] = peptide treatment concentration 1 μg/ml
[22] = peptide treatment concentration 2 μg/ml
[23] = peptide treatment concentration 4 μg/ml
[24] = peptide treatment concentration 6 μg/ml
[25] = peptide treatment concentration 8 μg/ml
[26] = peptide treatment concentration 16 μg/ml
[27] = peptide treatment concentration 32 μg/ml
[28] = peptide treatment concentration 64 μg/ml
[29] = with Erythromycin […] (Conc./MIC 1)
[30] = erythromycin 4 μg/ml (Conc./MIC 1/8)
[31] = erythromycin 8 μg/ml (Conc./MIC 1/4)
[32] = erythromycin 16 μg/ml (Conc./MIC 1/2)
[33] = erythromycin 32 μg/ml (Conc./MIC 1)
[34] = vancomycin 512 μg/ml (Conc./MIC 1/2)
[35] = vancomycin 1024 μg/ml (Conc./MIC 1)

Q: Which results are given for CC[C@H](C)[C@H](NC(=O)[C@H](CCCCN)NC(=O)[C@H](Cc1c[nH]c2ccccc12)NC(=O)[C@@H](N)CCCNC(=N)N)C(=O)N[C@@H](Cc1ccccc1)C(=O)N[C@@H](CCCCN)C(=O)N[C@@H](CCCCN)C(=O)N[C@H](C(=O)N1CCC[C@H]1C(=O)N[C@@H](CCCCN)C(=O)N[C@@H](CC(C)C)C(=O)N[C@@H](CC(C)C)C(=O)N[C@@H](Cc1c[nH]cn1)C(=O)N[C@@H](CO)C(=O)N[C@@H](CC(C)C)C(=O)N[C@@H](CCCCN)C(=O)N[C@@H](CCCCN)C(=O)N[C@@H](Cc1ccccc1)C(N)=O)[C@@H](C)CC [PapMA-8, RWK IFK KIP KLL HSL KKF-NH2] (H-RWKIFKKIPKLLHSLKKF-NH2; N-terminus assumed)?
A: Minimal inhibitory concentration MIC [1]: 32 µg/mL (≈ 13.9 µM); Minimal inhibitory concentration MIC [2]: >128 µg/mL; Minimal inhibitory concentration MIC [3]: >128 µg/mL; Minimal inhibitory concentration MIC [4]: 16 µg/mL (≈ 6.93 µM); Antibacterial activity (in words) ([4]; P. aeruginosa and S. typhimurium): significantly increased; Minimal inhibitory concentration MIC [5]: 64 µg/mL (≈ 27.7 µM); Peptide MIC, peptide alone [5]: 64 µg/mL; Minimal inhibitory concentration MIC [6]: 32 µg/mL (≈ 13.9 µM); Peptide MIC, peptide alone [6]: 32 µg/mL; Antibiotic MIC, Erythromycin [7, 21]: >128 µg/mL; Antibiotic MIC, Linezolid [7, 21]: >128 µg/mL; Antibiotic MIC, Vancomycin [7, 21]: >128 µg/mL; Antibiotic MIC, Erythromycin [7, 22]: 64 µg/mL; Antibiotic MIC, Linezolid [7, 22]: >128 µg/mL; Antibiotic MIC, Vancomycin [7, 22]: >128 µg/mL; Antibiotic MIC, Erythromycin [7, 23]: 8 µg/mL; Antibiotic MIC, Linezolid [7, 23]: 128 µg/mL; Antibiotic MIC, Vancomycin [7, 23]: >128 µg/mL; Antibiotic MIC, Erythromycin [7, 24]: 4 µg/mL; Antibiotic MIC, Linezolid [7, 24]: 32 µg/mL; Antibiotic MIC, Vancomycin [7, 24]: >128 µg/mL; Antibiotic MIC, Erythromycin [7, 25]: 1 µg/mL; Antibiotic MIC, Linezolid [7, 25]: 32 µg/mL; Antibiotic MIC, Vancomycin [7, 25]: 32 µg/mL; Antibiotic MIC, Erythromycin [7, 26]: 0.5 µg/mL; Antibiotic MIC, Linezolid [7, 26]: 16 µg/mL; Antibiotic MIC, Vancomycin [7, 26]: 16 µg/mL; Antibiotic MIC, Erythromycin [7, 27]: 0.125 µg/mL; Antibiotic MIC, Linezolid [7, 27]: 8 µg/mL; Antibiotic MIC, Vancomycin [7, 27]: 8 µg/mL; Antibiotic MIC, Erythromycin [7, 28]: 0 µg/mL; Antibiotic MIC, Linezolid [7, 28]: 0 µg/mL; Antibiotic MIC, Vancomycin [7, 28]: 0 µg/mL; Minimal inhibitory concentration MIC [8]: >128 µg/mL; Minimal inhibitory concentration MIC [9]: >128 µg/mL; Minimal inhibitory concentration MIC [10]: 16 µg/mL (≈ 6.93 µM); Minimal inhibitory concentration MIC [11]: 16 µg/mL (≈ 6.93 µM); Minimal inhibitory concentration MIC [12]: 64 µg/mL (≈ 27.7 µM); Minimal inhibitory concentration MIC [13]: 64 µg/mL (≈ 27.7 µM); Minimal inhibitory concentration MIC [14]: >128 µg/mL; Minimal inhibitory concentration MIC [15]: 64 µg/mL (≈ 27.7 µM); Peptide MIC [16, 29]: 0 µg/mL; Peptide MIC ([16]; with Linezolid 512 μg/ml (Conc./MIC 1)): 0 µg/mL; Peptide MIC [17, 29]: 0 µg/mL; Peptide MIC ([17]; with Linezolid […] (Conc./MIC 1)): 0 µg/mL; Peptide MIC ([17]; with Vancomycin 1024 μg/ml (Conc./MIC 1)): 0 µg/mL; Peptide MIC during treatment with erythromycin [18, 30]: 8 µg/mL; Peptide MIC during treatment with erythromycin [18, 31]: 8 µg/mL; Peptide MIC during treatment with erythromycin [18, 32]: 4 µg/mL; Peptide MIC during treatment with erythromycin [18, 33]: 0 µg/mL; Peptide MIC during treatment with linezolid ([18]; linezolid 64 μg/ml (Conc./MIC 1/8)): 4 µg/mL; Peptide MIC during treatment with linezolid ([18]; linezolid 512 μg/ml (Conc./MIC 1)): 0 µg/mL; Peptide MIC during treatment with linezolid ([18]; linezolid […] (Conc./MIC 1/2)): 1 µg/mL; Peptide MIC during treatment with linezolid ([18]; linezolid […] (Conc./MIC 1/4)): 2 µg/mL; Peptide MIC during treatment with vancomycin [18, 34]: 2 µg/mL; Peptide MIC during treatment with vancomycin [18, 35]: 1 µg/mL; Peptide MIC during treatment with vancomycin ([18]; vancomycin […] (Conc./MIC 1/4)): 2 µg/mL; Peptide MIC during treatment with vancomycin ([18]; vancomycin […] (Conc./MIC 1/8)): 4 µg/mL; Peptide MIC during treatment with antibiotic [19, 30]: 4 µg/mL; Peptide MIC during treatment with antibiotic [19, 31]: 4 µg/mL; Peptide MIC during treatment with antibiotic [19, 32]: 2 µg/mL; Peptide MIC during treatment with antibiotic [19, 33]: 0 µg/mL; Peptide MIC during treatment with antibiotic ([19]; linezolid 32 μg/ml (Conc./MIC 1/8)): 4 µg/mL; Peptide MIC during treatment with antibiotic ([19]; linezolid 64 μg/ml (Conc./MIC 1/4)): 2 µg/mL; Peptide MIC during treatment with antibiotic ([19]; linezolid […] (Conc./MIC 1)): 0 µg/mL; Peptide MIC during treatment with antibiotic ([19]; linezolid […] (Conc./MIC 1/2)): 2 µg/mL; Peptide MIC during treatment with antibiotic [19, 34]: 1 µg/mL; Peptide MIC during treatment with antibiotic [19, 35]: 0 µg/mL; Peptide MIC during treatment with antibiotic ([19]; vancomycin […] (Conc./MIC 1/4)): 1 µg/mL; Peptide MIC during treatment with antibiotic ([19]; vancomycin […] (Conc./MIC 1/8)): 4 µg/mL; Erythromycin MIC during combined treatment with peptide [20, 21]: 32 µg/mL; Linezolid MIC during combined treatment with peptide [20, 21]: >128 µg/mL; Vancomycin MIC during combined treatment with peptide [20, 21]: >128 µg/mL; Erythromycin MIC during combined treatment with peptide [20, 22]: 32 µg/mL; Linezolid MIC during combined treatment with peptide [20, 22]: >128 µg/mL; Vancomycin MIC during combined treatment with peptide [20, 22]: >128 µg/mL; Erythromycin MIC during combined treatment with peptide [20, 23]: 16 µg/mL; Linezolid MIC during combined treatment with peptide [20, 23]: 64 µg/mL; Vancomycin MIC during combined treatment with peptide [20, 23]: 64 µg/mL; Erythromycin MIC during combined treatment with peptide [20, 24]: 8 µg/mL; Linezolid MIC during combined treatment with peptide [20, 24]: 32 µg/mL; Vancomycin MIC during combined treatment with peptide [20, 24]: 32 µg/mL; Erythromycin MIC during combined treatment with peptide [20, 25]: 4 µg/mL; Linezolid MIC during combined treatment with peptide [20, 25]: 16 µg/mL; Vancomycin MIC during combined treatment with peptide [20, 25]: 8 µg/mL; Erythromycin MIC during combined treatment with peptide [20, 26]: 2 µg/mL; Linezolid MIC during combined treatment with peptide [20, 26]: 4 µg/mL; Vancomycin MIC during combined treatment with peptide [20, 26]: 4 µg/mL; Erythromycin MIC during combined treatment with peptide [20, 27]: 1 µg/mL; Linezolid MIC during combined treatment with peptide [20, 27]: 2 µg/mL; Vancomycin MIC during combined treatment with peptide [20, 27]: 2 µg/mL; Erythromycin MIC during combined treatment with peptide [20, 28]: 0 µg/mL; Linezolid MIC during combined treatment with peptide [20, 28]: 0 µg/mL; Vancomycin MIC during combined treatment with peptide [20, 28]: 0 µg/mL
